Data: US11845770B2, “Ascaroside derivatives and methods of use” (California Institute of Technology, priority 2019, dated 2023)

Experiments:
[1] = Stability in plasma (human); format: in vitro ADME; conditions: after 120 minutes, 37° C.
Description: (§1) The pH of plasma was adjusted to 7.4±0.1 if required. 1 mM intermediate solution was prepared by diluting 10 μL of the 10 mM stock solution of 1 with 90 μL DMSO; 1 mM intermediate of positive control propantheline bromide was prepared by diluting 10 μL of the stock solution with 90 μL ultra-pure water. 100 μM dosing solution was prepared by diluting 10 μL of the 1 mM intermediate solution with 90 μL of 45% MeOH/H2O. 98 μL of blank plasma was spiked with 2 μL of the 100 μM dosing solution to achieve a final concentration of 2 μM of the compound in duplicate. Samples were incubated at 37° C. in a water bath. At each time point (0, 10, 30, 60 and 120 min), 400 μL of stop solution (200 ng/mL tolbutamide plus 200 ng/mL labetalol in 50% ACN/MeOH) was added and was mixed thoroughly to precipitate protein. Sample plates were centrifuged at 4,000 rpm for 10 min. An aliquot of supernatant (100 μL) was transferred from each well and was mixed with 200 μL ultra-pure water. The samples were shaken at 800 rpm for about 10 min before LC/MS/MS analysis.
(§2) The remaining percentage of compound 1 (test article) after incubation was calculated according to the following equation.

[2] = test system: THP1 human macrophage cells; experiment: Stimulation of THP-1 cells, IL-6 at 6 or 36 hours post stimulation; format: cell-based; conditions: THP1-derived macrophages, IFNγ + LPS, 0.1 to 500 μM, FIG. 9
Description: Human immortalized monocytic THP-1 cells were maintained in phenol red free RPMI 1640 medium containing 10% (v/v) fetal bovine serum (FBS), 2 mM L-glutamine, penicillin (100 units/mL), streptomycin (100 μg/mL), amphotericin B (2.5 μg/mL), and 50 μM beta-mercaptoethanol (BME) at 37° C. with 5% (v/v) CO2. THP-1 cells were seeded in 1 mL of THP-1 medium (cell culture medium containing 10% (v/v) FBS, 2 mM L-glutamine, penicillin (100 units/mL), streptomycin (100 μg/mL), amphotericin B ([…]), and 50 μM BME)/well at a density of 1×10^6 cells/mL in six-well plates. Cells were differentiated by adding 10, 50, or 100 nM phorbol 12-myristate 13-acetate (PMA) to each well before incubating cells for 5.5 h at 37° C. with 5% (v/v) CO2. Without removing the media, different concentrations (either 0, 0.1, 1.0, 10, 100, 200, or 500 μM) of the compound were added to each well. Cells were stimulated, within 30 min by adding 20 ng/mL interferon gamma (IFNγ) and 100 ng/mL lipopolysaccharide (LPS) to each well. Following stimulation, the THP-1 cells were incubated for 6 or 36 hours at 37° C. with 5% (v/v) CO2. Supernatant was collected and stored at −80° C. until use.
IL-6 released from supernatants collected at 6 or 36 hours post stimulation with IFNγ and LPS were measured using the AlphaLISA Human IL-6 detection kit.

[3] = Stability in plasma (mouse); format: in vitro ADME; conditions: after 120 minutes, 37° C.
Description: as §1, §2

[4] = Plasma protein binding, HT-Dialysis (rat); format: in vitro ADME; conditions: pH 7.4, dialysis 4 hours, read-out: percent unbound
Description: HT-Dialysis plate (Model HTD 96 b, Cat #1006) and the dialysis membrane (molecular weight cut off 12-14 KDa, Cat #1101) can be purchased from HT Dialysis LLC (Gales Ferry, CT).
The plasma was thawed under running cold tap water and centrifuged at 3220×g for 5 min to remove any clots. The pH value was checked and recorded. Only plasma within range of pH 7.0 to pH 8.0 was used. The dialysis membrane was pretreated according to the manufacturer's instructions. Briefly, the dialysis membrane strips were soaked in ultra-pure water at room temperature for approximately 1 hr. After that, each membrane strip that contained 2 membranes was separated and soaked in ethanol:water (20:80 v:v) for approximately 20 min. The membrane was rinsed and soaked for 20 min in ultra-pure water.
Aliquots of 50 μL loading plasma (matrix) containing compound 1 or warfarin in triplicate were transferred to the appropriate wells of a sample collection plate. The samples were matched with dialysis buffer to obtain a final volume of 100 μL with a volume ratio of plasma (matrix):dialysis buffer (1:1, v:v) in each well. […]
The % Unbound, % Bound, % Recovery and % Remaining were calculated using the following equations: % Unbound=100×F/T % Bound=100−% Unbound % Recovery=100×(F+T)/T0 • F=the compound 1 concentration on the receiver side of the membrane/Correction Factor. […]

SMILES: C[C@H](CC/C=C/C(=O)OC(C)(C)C)O[C@@H]1O[C@@H](C)[C@H](O)C[C@H]1O [Compound 1, tert-butyl (2E,6R)-6-{[(2R,3R,5R,6S)-3,5-dihydroxy-6-methyloxan-2-yl]oxy}hept-2-enoate]
- remaining percentage after incubation [1]: 86.5%
- percent inhibition relative to Control of IL-6 levels secreted [2]: inhibited IL-6 expression in statistically significant, dose-dependent manner

SMILES: C[C@H](CC/C=C/C(=O)O)O[C@@H]1O[C@@H](C)[C@H](O)C[C@H]1O [ascr #7, reference compound]
- remaining percentage after incubation [1]: 89.8%
- remaining percentage after incubation [3]: 103.4%
- fraction unbound at 4 h [4]: 0.946
